Ends that are not written are not given here. * marks the point of attachment. Biotin = O=C1N[C@H]2[C@H](CS[C@H]2CCCCC(=O)*)N1

A word on the Kd: it is the equilibrium constant for the complex coming apart.

Test [1] concerns recombinant human PCNA (hPCNA). The experiment in a line: ELISA binding of biotinylated NKp44-derived peptides to plate-bound recombinant PCNA. The following applies: biotinylated peptide, 0–7.24 µM (Figure 1A), streptavidin-HRP, TMB, O.D. 650 nm. How it is done:
The pET-28 or pMAL-c2x vectors were used to produce soluble human PCNA (hPCNA) in Rosetta™ 2 (DE3) cells. Plasmids containing the mRNA sequence of PCNA or TL1A, APO-E3, HNF4 were transformed into Rosetta™ 2 cells via heat shock and grown on LB agar plates with kanamycin and chloramphenicol. A fresh colony of transformed bacteria was grown overnight in a 5 ml of LB with kanamycin and chloramphenicol an incubator shaker set to 37°C and at 250 rpm. The next day, bacteria cells were diluted 1:100 into a 500 ml of LB with kanamycin and chloramphenicol (to discard dead cells) and grown to an optical density (O.D.) of 0.6–0.8 (λ = 650 nm). Isopropyl β-D-1-thiogalactopyranoside (0.5 mM) was added for the induction of the PCNA production, and cells were further incubated for 4 h at 26°C (hPCNA). Cells were then centrifuged and the pellet was resuspended with solution A (20 mM Tris–HCl pH 8.0, 0.5 M NaCl, 20 mM imidazole), sonicated six times (20 s with 40 s intervals) and sieved through […] (Sartorius Stedim Biotech) filter before loaded on a His-tag or Amylose resin beads. Purification of His-tagged proteins was done using a Gravity-flow Column with “HisPur™ Ni-NTA Resin” Bead kit (Thermo-Scientific) (binding capacity ≤ 60 mg of a 28 kDa 6xHis-tagged protein from a bacterial source per milliliter of settled resin) according to Kits Protocol. Purification of MBP-tagged proteins was done using the Amylose resin beads (Catalog # E8035S).
To determine the interaction between NKp44-derived peptides and PCNA, ELISA plates were coated overnight at 4°C with 2 µg/ml of the recombinant PCNA or TLA1 ([49]), APO-E3 ([50]), HNF4 ([4]), rhFc, rhNKp44-hFc ([12]), rhNKp46-hFc ([51]), and PBS 1× (negative controls). Blocking buffer (PBS + 2.5% skim milk) was applied for 2 h at room temperature, after that the plates were incubated with 0–8 µM of biotinylated NKp44-derived peptides or PBS 1× (background control) for 2 h at room temperature. NKp44-derived peptides binding to PCNA was detected using horseradish peroxidase (HRP)-conjugated to streptavidin (1 h at 1:500 dilution). Following washing, TMB (DAKO, S1599) was added. O.D. was read at 650 nm (Thermo Electron Corporation Multiskan Spectrum). Between each step, wells were washed three times with PBS containing 0.05% Tween 20 (PBST).
On the technique in general: In an ELISA, binding on a coated surface is turned into a signal by an enzyme label.

For test [2], the system named is 4T1 mammary carcinoma cells. The experiment in a line: PrestoBlue cell viability, 4T1. In kind it is cell-based, murine. The following applies: 4T1, PrestoBlue, 24 h; peptides 0–8 µM; selenite 25 µM. How it is done: (§1) Target cells (2.5 × 10^4 cells/well of a 48-well plate, Corning) were seeded and incubated in 37°C, 5% CO2 for 24 h in 0.5 ml of fresh complete DMEM (10% FBS) culture medium. According to molecular weight peptides were diluted from 8 to 2 µM with 5% FBS containing DMEM culture medium just before the incubation with the target cells. Medium was removed from each well, and 250 µl of diluted peptides was added and incubated for another 24 h at 37°C, 5% CO2. PrestoBlue (A13261, Invitrogen™) solution was prepared by diluting the dye 10-fold with complete DMEM. Medium was discarded from each well, and 250 µl of PrestoBlue solution was added to each well, shake gently and incubated at 37°C for another 1 h. Emission at 560 nm was measured in Premium Quad4 Monochromators plate reader (Tecan). Normalization was done relative to the appropriate control (DMEM or DMSO) to calculate the percentage of viable cells in each group. Selenite (25 µM) was used as a positive control ([52], [53]).

Test [3] has as its system A549 lung carcinoma cells. Put plainly: PrestoBlue cell viability, A549. Conditions: 24 h, peptides 0–8 µM, selenite 25 µM. In kind it is cell-based, human. How it is done:
as §1

The subject of another test is B16 melanoma cells. Put plainly: PrestoBlue cell viability, B16. Conditions: 24 h. In kind it is cell-based, murine. How it is done:
as §1

In test [4] the test system is PANC-1 pancreas ductal adenocarcinoma cells. Put plainly: PrestoBlue cell viability, PANC-1. The format is cell-based, human. The following applies: PANC-1, PrestoBlue, 24 h. How it is done:
as §1

The subject of test [5] is HepG2 hepatocellular carcinoma cells. Put plainly: PrestoBlue cell viability, HepG2. In kind it is cell-based, human. The following applies: 24 h. How it is done:
as §1

Test [6] deals with MDA-MB-231 breast adenocarcinoma cells. The experiment in a line: PrestoBlue cell viability, MDA-MB-231. In kind it is cell-based, human. Conditions: MDA-MB-231, PrestoBlue, 24 h. How it is done: as §1
The subject of a further test is B16 cells. The experiment in a line: Flow cytometry based cell death assay (PI), B16. More on the design: species or system murine. The following applies: 0–8 µM, 24 h. How it is done:
(§2) Peptides were diluted before the incubation with the target cells with free DMEM culture medium to 0–16 µM according to peptide molecular weight. For adding the peptides, 0.5 ml was removed from each well, and 0.5 ml of diluted peptides was added to a final volume of 1 ml, 5% FCS, duplicates. Peptides were incubated with target cells for 24 h, and then the medium was collected, adherent cells were removed with trypsin–EDTA (0.5 ml, 3 min, BI: 03-052-1B), 1 ml of complete medium was added to each well, and the medium was collected (final volume 2.5 ml, on ice). For the cell death assay, samples were then centrifuged (1,300 rpm, 4°C, 5 min), the medium was removed, fresh 1 ml 10% FCS was added, and then 1 µl of 1 mg/ml PI was added to each sample and incubated (15 min, on ice) with the target cells. Before analyzing the samples, samples were centrifuged (1,300 rpm, 4°C, 5 min), the medium was removed, and fresh 0.2 ml FCAS buffer (PBS 1×, 20% FCS, 0.5% NaN3) was added. Samples were then read and analyzed using BD FACSCanto™ II and FlowJo®. APIM peptide and camptothecin (CPT) were used as positive controls ([38], [54]–[56]). Specific cell death was calculated as following: Y = 100*((sample cell death − basal cell death)/(100 − basal cell death)). Basal cell death = % of PI positive cells following incubation in complete culture media.
A general note: A flow cytometer gives signals particle by particle.

The test system of the next test is 4T1 cells. The experiment in a line: Flow cytometry based cell death assay (PI), 4T1. The following applies: 4T1, PI flow cytometry, 0–8 µM, 24 h. More on the design: species or system murine. How it is done:
as §2

A further test concerns MDA-MB-231 cells. The experiment in a line: Flow cytometry based cell death assay (PI), MDA-MB-231. Also on record: species or system human. The following applies: MDA-MB-231, PI flow cytometry, 0–8 µM, 24 h. How it is done: as §2
Test [7] relates to pep8–PCNA interaction (recombinant PCNA). Put plainly: ELISA-based inhibition of biotin-pep8 binding to PCNA. More on the design: species or system human. Conditions: inhibitor 25 µg/ml 1 h, then biotin-pep8 5 µg/ml 1 h, room temperature, O.D. 650 nm. How it is done: To determine the ability of APIM-based peptide to suppress NKp44-pep8 interaction with PCNA, ELISA plates were coated with recombinant PCNA followed by PBS–skim milk added as described earlier. Plates were then incubated with 25 µg/ml of R11-NLS-pep8 (positive control), R11-NLS-pep8short (negative control), and APIM for 1 h at room temperature followed by addition of biotin-pep8 (5 µg/ml) without washing for 1 h at room temperature. Biotin-pep8 binding to PCNA was detected using streptavidin conjugated HRP (1 h at 1:500 dilution 100 μl/well). Following washing, TMB (100 μl/well DAKO, S1599) was added. O.D. was read at 650 nm (Thermo Electron Corporation Multiskan Spectrum).

Test [8] concerns the target T1, MBP-fused recombinant human PCNA (human, UniProt P12004 1-261).
T1 construct: proliferating cell nuclear antigen, human; vector pMAL-c2x; Analyte of the SPR experiments; also called MBP-PCNA; hPCNA; source: E. coli Rosetta 2 (DE3), purified (amylose resin)
Put plainly: SPR; ProteOn XPR36, GLC chip; peptides immobilised by EDC/S-NHS amine coupling; MBP-PCNA 0-250 nM as analyte at 25 µl/min; equilibrium analysis model. The following applies: both partners purified.

Test [9] addresses T2, recombinant human PCNA (proliferating cell nuclear antigen) (human, UniProt P12004 1-261).
T2 construct: proliferating cell nuclear antigen, human; PCNA coated on ELISA plates; also called hPCNA; recombinant PCNA; source: E. coli Rosetta 2 (DE3), purified (Ni-NTA or amylose resin); not shown: His tag or MBP (from the vectors pET-28 or pMAL-c2x)
The experiment in a line: ELISA; plates coated overnight at 4°C with 2 µg/ml recombinant protein; blocked with PBS + 2.5% skim milk; 0-8 µM biotinylated NKp44-derived peptides, 2 h at room temperature; streptavidin-HRP. Conditions: both partners purified.

T2 sequence (P12004 whole entry): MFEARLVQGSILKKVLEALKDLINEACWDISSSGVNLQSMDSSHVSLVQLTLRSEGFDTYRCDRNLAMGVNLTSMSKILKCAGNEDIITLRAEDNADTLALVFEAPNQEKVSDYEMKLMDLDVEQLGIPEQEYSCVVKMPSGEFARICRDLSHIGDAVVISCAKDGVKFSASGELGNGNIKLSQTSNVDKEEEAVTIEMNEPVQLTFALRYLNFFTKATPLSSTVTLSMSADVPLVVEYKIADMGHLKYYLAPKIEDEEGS
T1 sequence (P12004 whole entry, the tested form may be a part): as the sequence (P12004 whole entry) above

With “YPPTGSLYEKKGWCKEASAL [pep5, NKp44-derived peptide used as negative control]”, in test [1], the “binding to recombinant hPCNA” value was “negative binding”.

For “RRRRRRRRRRR-I-KKKRK-W-VTSSKPRTVA [R11-NLS-pep8short, R11-NLS fused to pep8short, negative control]”, the “effect on cell viability, in words” value is reported as “did not affect 4T1 cell viability” in test [2]; “did not show any effect on tumor cell viability” in test [3]; “none to dull effect” in the test with B16 melanoma cells; “none to dull effect” in [4]; “none to dull effect” in [5]; “none to dull effect” in test [6]. The “induction of cell death, in words” value with B16 cells, in the test on 4T1 cells and in the test on MDA-MB-231 cells was “did not induce any cell death” in each case. The “inhibition of pep8 binding to PCNA” value in test [7] was 10%.

For the molecule “MDRWLVK-W-KKKRK-I-RRRRRRRRRRR [APIM, published PCNA-targeting peptide used as positive control, reference compound]”, the “induction of cell death, in words” value in the test on B16 cells, with 4T1 cells and in the test with MDA-MB-231 cells was “strong induction of cell death” each time. Moreover, the “inhibition of pep8 binding to PCNA” value in test [7] is 7%.

On to `O=[Se](O)O` [Selenite, reference compound], for which the “effect on cell viability, in words” value in test [2] and in test [3] was “significantly reduced cell viability” each time.

On to `CC[C@@]1(O)C(=O)OCc2c1cc1n(c2=O)Cc2cc3ccccc3nc2-1` [CPT, camptothecin, reference compound], for which the “induction of cell death, in words” value with B16 cells is “lower, but stable levels of cell death”; in the test on 4T1 cells, “lower, but stable levels of cell death”; in the test on MDA-MB-231 cells, “lower, but stable levels of cell death”.

For the molecule “VTSSKPRTVA [pep8short, short form of pep8]”, the “binding to recombinant hPCNA” value was “does not bind PCNA” in [1]; “did not bind PCNA” in [1] (listed as 10-mer shared core sequence of pep8 and pep10).

B1: R11-NLS-pep8 (peptide)
peptide: RRRRRRRRRRRIKKKRKWEASALVCIRLVTSSKPRTVA
modifications: not fully specified (residue 38, N-terminus); printed as RRRRRRRRRRR-I-KKKRK-W-EASALVCIRLVTSSKPRTVA
notes: cell-penetrating moiety: R11, I, NLS stretch KKKRK, W; NKp44 (NCR2), amino acids 57-76 (pep8), with valine at 75 (SNP rs9471577); also called CPP-pep8; source: synthetic peptide (GL Biochem, purity > 95%)
Turning to B1, the Kd in [8] worked out at 87 nM.

B2: biotinylated NKp44-derived peptide #10 (peptide)
peptide: Biotin-VTSSKPRTVAWTSRFTIWAA
notes: NKp44 (NCR2), amino acids 67-86, with valine at 75 (SNP rs9471577); also called pep10; NKp44-pep10; source: synthetic peptide (PEP screen, Sigma-Aldrich; selected peptides from GL Biochem)
Take B2: the binding result in [9] is “binds”.

B3: NKp44-derived pep8 (immobilised for SPR) (peptide)
peptide: EASALVCIRLVTSSKPRTVA
notes: NKp44 (NCR2), amino acids 57-76, with the natural SNP variant (rs9471577) valine at 75; also called NKp44-pep8; source: synthetic peptide
On to B3, for which, in [8], the dissociation constant (Kd) was 490 nM.

B4: biotinylated NKp44-derived peptide #8 (peptide)
peptide: Biotin-EASALVCIRLVTSSKPRTVA
notes: NKp44 (NCR2), amino acids 57-76, with the natural SNP variant (rs9471577) valine at 75; also called pep8; NKp44-pep8; source: synthetic peptide (PEP screen, Sigma-Aldrich; selected peptides from GL Biochem)
B4: the binding result in [9] is “binds”.

The record behind these values is PMC5974751, “NKp44-Derived Peptide Binds Proliferating Cell Nuclear Antigen and Mediates Tumor Cell Death” (Frontiers in Immunology, 2018).
